Measured values reported in patent US20140235578A1, “METHODS FOR TREATING NEOPLASIA AND FOR IDENTIFYING COMPOSITIONS USEFUL IN SUCH THERAPY” (priority 2007, published 2014).
Where a SMILES comes first, the peptide text is derived from it. The star is where a group is joined. Cbz = O=C(OCc1ccccc1)*

Legend:
[1] = tested on: Top2β; assay: Top2β protein level by Western blotting in H9C2 cells; assay type: cell-based; details: 100 μM, 0-6 hrs
Method: (§1) The amount of Top2 cleavage complexes was measured by a band depletion assay as described in Materials and Methods. Cells were lysed either immediately or after reversal of the Top2 cleavage complexes (labeled R+250). Cell lysates were analyzed by Western blotting using anti-Top2α/Top2β or anti-α-tubulin antibody. […] Cells were then lysed and protein levels of Top2α, and Top2β isozymes were determined by Western blotting. […] Cell lysates were immunoblotted using anti-Top2β antibody. D, H9C2 cells were treated with ICRF187 (100 μM) for 4 hrs, followed by treatment with doxorubicin (Doxo, 0, 0.5 and 1 μM) for 1.5 hrs. Neutral comet assay was then performed as described in Materials and Methods. The average comet tail moments were plotted as histograms (mean±SEM). * p-value<0.001, t-test.

[2] = biological target: T1, Top2α (Rattus norvegicus, UniProt P41516); assay: Top2α protein level by Western blotting in H9C2 cells; assay type: cell-based; details: 100 μM, 0-6 hrs
T1 construct: endogenous in cells; host or cells: H9C2 cardiomyocytes
Method: as §1

[3] = tested on: H9C2 cardiomyocytes; assay type: cell-based
Method: Vitamin C and NAC were added 30 min prior to doxorubicin. Cell lysates were then analyzed by Western blotting using anti-γ-H2AX or anti-α-tubulin antibody. […] Cell lysates were then analyzed by Western blotting (upper panel) using anti-γ-H2AX or anti-α-tubulin antibody. Quantification of γ-H2AX signals is shown in the lower panel. C, H9C2 cells were treated with 0.1% DMSO (labeled DMSO), bortezomib (1 μM) or MG132 (4 μM) for 30 min, followed by co-treatment with either 0.1% DMSO (labeled control) or 0.5 μM doxorubicin (labeled Doxo) for 1.5 hrs. Neutral comet assay was then performed as described in Materials and Methods. The average comet tail moments were plotted as histograms (mean±SEM). *p-value<0.001, t-test.
as §1, with “Neutral comet assay was then performed as described in Materials and Methods. The average comet tail moments were plotted as histograms (mean±SEM). * p-value<0.001, t-test.” left out

[4] = tested on: SV40-transformed MEFs; assay: Plasmid integration assay; assay type: cell-based, mouse; details: 2 μM, added 30 min prior to and during transfection
Method: Transformed top2β^+/Δ2 and top2β^Δ2/Δ2 MEFs were plated in six-well plates (4×10^5 cellsper well) one day prior to transfection. Transfection was performed with EcoRI-linearized pUCSV-BSD plasmid (containing the blasticidin resistance gene) using the Cellfectin (Invitrogen) transfection reagent (0.1 μg DNA+2 μl Cellfectin). VP-16 was added at the time of transfection. After 6 hr, cells were washed and trypsinized. A small aliquot was removed, reseeded into fresh medium and grown without the selection agent for survival determination. The rest of the cells were reseeded into fresh medium in a 10 cm plate. After 24 hr, the selection agent blasticidin (3 μg/ml) was added. Colonies were stained with methylene blue and counted after 10 days. Where indicated, the proteasome inhibitor MG132 (2 μM) was added 30 min prior to and during transfection. Integration frequency was determined as the ratio of the number of blasticidin-resistant colonies and the number of surviving cells.

[5] = tested on: MEFs; assay: Neutral comet assay of VP-16-induced DSBs; assay type: cell-based, mouse; details: co-treatment, data not shown
Method: Both wild type and Top2β knockout mouse embryonic fibroblasts (MEFs) were treated with either DMSO (solvent control) or VP-16 (250 μM) for 90 min, followed by incubated in drug-free media for 30 min. Neutral comet assay was then performed. Tail moment (average from 100 cells) was determined for each treatment.

T1 sequence (P41516 whole entry): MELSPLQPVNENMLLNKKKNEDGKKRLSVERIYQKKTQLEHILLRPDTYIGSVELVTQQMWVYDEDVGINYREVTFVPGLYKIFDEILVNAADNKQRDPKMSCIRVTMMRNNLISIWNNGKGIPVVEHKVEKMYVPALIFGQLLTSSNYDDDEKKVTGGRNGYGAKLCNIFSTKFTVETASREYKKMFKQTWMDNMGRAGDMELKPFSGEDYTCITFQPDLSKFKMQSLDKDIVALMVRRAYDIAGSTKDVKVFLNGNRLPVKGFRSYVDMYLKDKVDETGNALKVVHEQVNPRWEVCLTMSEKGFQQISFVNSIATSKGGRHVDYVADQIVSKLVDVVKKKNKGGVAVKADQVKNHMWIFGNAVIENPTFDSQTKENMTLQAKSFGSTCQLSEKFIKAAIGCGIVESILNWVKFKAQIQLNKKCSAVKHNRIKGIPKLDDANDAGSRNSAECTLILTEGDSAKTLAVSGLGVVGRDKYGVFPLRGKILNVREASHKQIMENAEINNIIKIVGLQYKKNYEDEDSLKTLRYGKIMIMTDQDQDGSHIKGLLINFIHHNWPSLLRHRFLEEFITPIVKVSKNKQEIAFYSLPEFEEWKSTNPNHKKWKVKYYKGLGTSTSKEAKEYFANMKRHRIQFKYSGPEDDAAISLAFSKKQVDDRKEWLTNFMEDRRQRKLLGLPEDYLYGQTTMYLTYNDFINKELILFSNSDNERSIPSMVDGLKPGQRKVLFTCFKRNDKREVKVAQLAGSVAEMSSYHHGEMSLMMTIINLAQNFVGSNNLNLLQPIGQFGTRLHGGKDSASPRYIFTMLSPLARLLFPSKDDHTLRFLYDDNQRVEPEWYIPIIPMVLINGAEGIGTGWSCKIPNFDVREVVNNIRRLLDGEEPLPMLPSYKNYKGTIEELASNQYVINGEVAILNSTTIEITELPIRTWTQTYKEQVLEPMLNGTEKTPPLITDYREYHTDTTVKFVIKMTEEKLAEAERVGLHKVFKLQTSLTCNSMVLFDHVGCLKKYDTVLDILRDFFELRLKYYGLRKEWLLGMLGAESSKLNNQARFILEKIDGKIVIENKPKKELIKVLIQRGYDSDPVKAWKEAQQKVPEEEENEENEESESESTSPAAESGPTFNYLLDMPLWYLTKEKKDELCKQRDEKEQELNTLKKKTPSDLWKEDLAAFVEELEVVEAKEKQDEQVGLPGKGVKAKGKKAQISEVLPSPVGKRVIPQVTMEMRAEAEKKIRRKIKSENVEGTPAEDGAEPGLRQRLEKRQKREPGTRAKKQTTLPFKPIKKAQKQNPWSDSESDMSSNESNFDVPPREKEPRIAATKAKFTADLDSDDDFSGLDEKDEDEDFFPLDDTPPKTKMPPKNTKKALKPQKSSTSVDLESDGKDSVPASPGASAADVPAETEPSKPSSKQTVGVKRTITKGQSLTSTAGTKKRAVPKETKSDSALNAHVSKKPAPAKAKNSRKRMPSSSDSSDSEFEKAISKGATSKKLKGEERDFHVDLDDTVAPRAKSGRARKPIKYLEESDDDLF

level of the Top2α isozyme [2]	Structure (SMILES)	protein level of Top2β [1]	effect on doxorubicin-induced comet tail moment [3]	effect on VP-16-stimulated plasmid integration [4]	effect on VP-16-induced DSBs [5]
no significant effect	C[C@@H](CN1CC(=O)NC(=O)C1)N1CC(=O)NC(=O)C1 [dexrazoxane]	time-dependent disappearance			
	CC(C)C[C@@H](C=O)NC(=O)[C@H](CC(C)C)NC(=O)[C@H](CC(C)C)NC(=O)OCc1ccccc1 [MG132, N-[(Phenylmethoxy)carbonyl]-L-leucyl-N-[(1S)-1-formyl-3-methylbutyl]-L-leucinamide] (Cbz-Leu-Leu-Leu-aldehyde)		significantly reduced	blocks	abolish
